According to US5739115A, “Sulfated maltooligosaccharides with heparin-like properties” (Glycomed Incorporated, priority 1994, dated 1998):

How the values were obtained:
[1] = tested on: chicken chorioallantoic membrane (CAM); test: Chicken chorioallantoic membrane (CAM) assay, angiostatic activity; format: in vivo
From the text: Compositions that stimulate or inhibit angiogenesis can be identified using several assays known in the art. The chick chorioallantoic membrane (CAM) assay is commonly used. Using the CAM assay, certain heparinoids inhibit angiogenesis when administered with certain steroids. Folkman and Ingber, Ann, Surg. (1987) 206:374, Folkman et at., Science (1983) 221:719.
Compositions that stimulate or inhibit angiogenesis can be identified using several assays known in the art. Highly sulfated maltotetraose, Composition 5, Table 2, was tested for angiogenesis activity using the chicken chorioallantoic membrane (CAM) assay. The assay was performed as described by Castellot et. at., J. of Cellular Physiology (1986) 127: 323-329, with the exception that samples were evaluated for their efficacy to inhibit neovascularization. Carboxy methyl cellulose pellets containing 50 ug of hydrocortisone, or hydrocortisone plus different amounts of highly sulfated maltotetraose were incubated on the CAM for 3-4 days before scoring the results. Highly sulfated maltotetraose was produced as described in Example 2. Angiostatic activity is defined as a partial clearing or an avascular zone around the pellet. […]

[2] = tested on: pericyte and smooth muscle cell; conditions: literature; result in words; cited from earlier work
vascular proliferation = conditions: literature; result in words; cited from earlier work
[3] = tested on: basic fibroblast growth factor; conditions: literature; result in words; cited from earlier work
[4] = tested on: Bovine smooth muscle cells (SMC); test: Inhibition of smooth muscle cell (SMC) growth; format: cell-based; conditions: for inhibition of SMC growth (anti-proliferative activity): relative to heparin
From the text: Maltotetraose, maltopentaose and maltohexaose were sulfated as described in Examples 1-3, and assayed for their effects on smooth muscle cell proliferation using a standard assay for this activity. A convenient assay, in detail, is as follows:
Solutions to be tested are made up in DMEM medium containing 10% fetal calf serum and penicillin/streptomycin. Bovine smooth muscle cells (SMC) are isolated from bovine aorta by the method of Ross, R., J Cell Biol (1971) 172-186. SMC from passage 3-10 are plated at 350-700 cells per well in 96-well microtiter plates in the medium above and allowed to attach for 2-4 hr. The complete medium is then replaced with DMEM supplemented with 0.1% fetal calf serum, and the cells are incubated for an additional period of about 24 to 72 hr to arrest cell growth. The low-serum medium is then replaced with complete medium containing the test samples. The sulfated maltose oligosaccharides of the invention were added to the medium to make final concentrations as shown in the figures. The effects of heparin at the same concentrations were also determined.
The cells are allowed to grow for up to 7 days with replicate plates sampled at regular intervals. Cell number is determined by removing the medium and washing the cells with phosphate-buffered saline, adding 75-150 ul lysis buffer, and assaying for lactate dehydrogenase (LDH) activity, as described by Brandley, B., et at., J Biol Chem (1987) 262:6431. The activity of LDH is proportional to cell number.

bFGF = test: Binding of RO-12 UC cells to bFGF coated micro-titer wells; format: cell-based, human; conditions: result in words, FIGS. 1 and 3
Experimental: Bound cells are readily quantitated as total protein.
The assay was run as follows: Fifty microliters of 10 ug/ml human recombinant bFGF was added to wells of a 96-well tissue culture plate and incubated overnight at 4° C. The wells were aspirated with PBS to remove any unbound bFGF, rinsed twice with PBS, and subsequently incubated with PBS containing 5% (v/v) fetal bovine serum for 1 hour at room temperature. RO-12 UC cells were suspended at a density of 3×10^6 cells/ml in PBS containing 5% fetal bovine serum. To this mixture was added the desired amount of sulfated composition, or heparin. […] Next, 100 ul of the cell suspension was immediately added to the microtiter wells, and incubated for 5 minutes, after which the wells were washed 3 times with PBS. Finally, the amount of cell protein bound to the wells was determined by dissolving the bound cells in 20 ul of 5% SDS and measuring the protein. concentration of the cell lysates. BSA was used as the standard.

[5] = tested on: adrenocortical endothelial (ACE) cell line; test: Inhibition of bFGF-dependent adrenocortical endothelial (ACE) cell proliferation; format: cell-based; conditions: 2 ng/ml bFGF, four days, result in words, FIGS. 2 and 4
Experimental: The capacity of the sulfated maltohexaoses to inhibit the proliferation of a bFGF-dependent adrenocortical endothelial (ACE) cell line was determined. This cell line (provided by D. Gospodarowicz, UCSF) requires either aFGF or bFGF for a proliferative response. Cells were seeded at low density in microtiter wells in the presence of 2 ng/ml bFGF, and growth was determined as total protein after four days in the presence of the sulfated maltohexaoses.

heparanase = test: Heparanase inhibition, rat hepatoma cell heparanase; format: biochemical
Experimental: Highly sulfated maltotetraose, Composition 5, Table 2, maltoheptaose and maltose were tested for heparanase inhibitory activity using heparanase from a rat hepatoma cell line. […] Further, their inhibitory activities were compared to porcine mucosal heparin. […] The following procedures and materials were used. Confluent rat hepatoma cell cultures were grown in standard cell culture flasks, and washed 3 times with 10 ml of a 50 mM Hepes solution containing 0.25M sucrose and 0.14M NaCl, pH 7.4. Next, 1 ml of a 50 mM MES buffer, pH 5.2, containing 0.14M NaCl, 6 mM sodium azide, and certain protease inhibitors was added and the cells removed from the flask using a disposable cell scraper. The following protease inhibitors were present in the MES buffer: 0.2 ug/ml aprotinin, 0.5 ug/ml leupeptin, 100 ug/ml soybean trypsin inhibitor, 1 mM PMSF, 2 mM EDTA (sodium salt), and 15 mM D-saccharic acid 1,4 lactone (exoglucuronidase inhibitor).
The cells were added to a 7 ml Dounce homogenizer, freezed/thawed 3 times in an ethanol/dry ice bath, and homogenized with 15 strokes using a tight pestle. The resulting cell lysates were placed in a 2 ml centrifuge tube and centrifuged at 4° C. for 30 minutes at 16,000×g. The supernatant was removed, and the protein concentration in the supernatant determined using the Macro BCA protein assay. BSA was used as a standard. Heparanase activity was quantified by measuring soluble N-^3 H-acetylated pancreas heparan sulfate fragments derived from uncleaved N-^3 H-acetylated pancreas heparan sulfate distinguishable by cetylpyridinium chloride (CPC) precipitation. […] The following procedures were used.
Next, 10 ul of distilled water containing various concentrations of porcine mucosal heparin, or the appropriate highly sulfated maltooligosaccharide, was added. Then, 30 ul of rat hepatoma cell supernatant, isolated as described above, containing 7.5-10 ug of protein in 50mM MES buffer, pH 5.2, containing 0.14M NaCl, 6mM sodium azide and the protease inhibitors described above, is added to siliconized 1.5 ml microcentrifuge tubes. Three to six replicates were run for each concentration of highly sulfated maltotetraose while three replicates were run for each concentration of porcine mucosal heparin. Controls were run to account for background counts.
The enzyme substrate inhibitor mixture was mixed, after which the tubes were incubated at 37° C. for 20 minutes. After 20 minutes, the reaction was stopped by adding to the reaction tubes 150 ul of an aqueous heparin solution (0.33 mg/ml). 200 ul of 100 mM sodium acetate pH 5.5 and 100 ul of CPC (0.6% in water) were then added. Three replicates maintained on ice were run as background controls (0 min.) in which the enzyme was added to the tubes immediately followed by heparin to terminate the reaction. […]

PC-3 = PC-3 prostatic adenocarcinoma tumor growth in nude mice; format: in vivo, human tumor in nude mouse; conditions: 80 mg/kg/day subcutaneous, 23 days, all time points tested; result in words
Experimental: (§1) Experiments were conducted to test the efficacy of highly sulfated maltotetraose, Composition 5, Table 2, on tumor growth in an animal model system, the nude mouse. The growth of human tumors in the nude mouse has clinical relevance to the growth of tumors in humans.
(§2) Three human tumor cell lines were utilized, the mammary adenocarcinoma, MDA231, the pancreatic tumor cell line, CAPAN-2, and the prostatic adenocarcinoma cell line, PC-3. All cell lines are available from the American Type Culture Collection, and grow aggressively in nude mice. The experiments were conducted as follows: female, 15-20 gram nude mice, in groups of ten, were inoculated subcutaneously with 3-5×10^6 viable MDA231, CAPAN-2, or PC-3 cells in 0.1 ml PBS. The cells were grown in standard DMEM tissue culture media supplemented with 10% fetal calf serum in a humidified 5% CO2 incubator at 37° C. The cells were harvested with trypsin-EDTA, washed 2× with PBS, resuspended at a concentration of 3-5×10^7 cells/ml, and placed on ice prior to injection.
[…] The composition was filter sterilized with a 0.2 um Gelman filter unit.
(§3) Tumor volume was determined using the following formula: [formula]
Finally, the effects of highly sulfated maltotetraose on the human prostatic adenocarcinoma line, PC-3, was determined. This cell line is also available from the American Type Culture Collection. […]

CAPAN-2 = CAPAN-2 pancreatic tumor growth in nude mice; format: in vivo, human tumor in nude mouse; conditions: dosed once daily from day 0; result in words
Experimental: as §1
as §2, with “injection. […]” for “injection.”
as §3
The effects of highly satfated maltotetraose on CAPAN-2 tumor cell growth were determined using the materials and methods set forth above with the following exceptions. […]

MDA231 = MDA231 mammary adenocarcinoma tumor growth in nude mice; format: in vivo, human tumor in nude mouse; conditions: for MDA231 tumor growth inhibition: result in words
Experimental: as §1, §2
On a dally basis, the mice were subcutaneously injected with 100 mg/kg of highly sulfated maltotetraose made up in PBS, and produced as described in Example 2. The composition was filter sterilized with a 0.2 um Gelman filter unit.
as §3
Control mice were injected with PBS vehicle only. Experimental and control mice were injected twice daily with 0.05 ml of the appropriate solution starting on days 0-40 post tumor challenge. From days 41-70 the animals were dosed once daily with 100 mg/kg/day in a volume of 0.1 ml per injection, and tumor volume measured at defined times using standard methods.

[6] = hydrocortisone 50 ug/pellet alone, 24 hr
[7] = listed as highly sulfated maltose
[8] = listed as highly sulfated maltotriose

C[C@]12CCC(=O)C=C1CC[C@@H]1[C@@H]2[C@@H](O)C[C@@]2(C)[C@H]1CC[C@]2(O)C(=O)CO [Hydrocortisone, hydrocortisone]
number of embryos scored, NO EFFECT [1, 6]: 27 embryos
number of embryos scored, avascular zone (++) [1, 6]: 0 embryos
number of embryos scored, partial clearing (+) [1, 6]: 2 embryos

chondroitin sulfate
inhibition of pericyte and/or smooth muscle cell proliferation [2]: do not have this effect

dermatan sulfate
inhibition of pericyte and/or smooth muscle cell proliferation [2]: do not have this effect

heparan sulfate
vascular proliferation associated with injury (vascular proliferation): slow or arrest the vascular proliferation

heparin
inhibition of pericyte and/or smooth muscle cell proliferation [2]: inhibitor of both pericyte and smooth muscle cell proliferation
binding to basic fibroblast growth factor [3]: binds heparin quite strongly in vitro
concentration that gave 100% inhibition of SMC proliferation ([4]; heparin reference): 150 µg/mL
vascular proliferation associated with injury (vascular proliferation): slow or arrest the vascular proliferation
inhibition of binding of RO-12 UC cells to bFGF coated wells (bFGF): inhibits RO-12 UC cell binding

highly sulfated maltoheptaose [Composition 7]
inhibition of adrenocortical endothelial cell proliferation [5]: significant activity
heparanase inhibition (heparanase; result in words): as active as heparin
inhibition of binding of RO-12 UC cells to bFGF coated wells (bFGF): significant activity

highly sulfated maltopentaose [Composition 6]
inhibition of adrenocortical endothelial cell proliferation [5]: significant activity
inhibition of SMC growth, per cent of heparin inhibition ([4]; about 50 ug/ml): 100%
inhibition of SMC growth (anti-proliferative activity) ([4]; result in words): more effective in inhibiting SMC proliferation than the smaller-sized sulfated maltotetraose
inhibition of binding of RO-12 UC cells to bFGF coated wells (bFGF): significant activity

highly sulfated maltose [Composition 9]
inhibition of adrenocortical endothelial cell proliferation [5]: little or no activity relative to the highly sulfated maltotetraose composition
inhibition of adrenocortical endothelial cell proliferation [5, 7]: less active
heparanase inhibition (heparanase; at greater than 200 ug/ml, result in words): no activity
inhibition of binding of RO-12 UC cells to bFGF coated wells (bFGF): little or no activity relative to the highly sulfated maltotetraose composition
inhibition of binding of RO-12 UC cells to bFGF coated wells (bFGF; [7]): less active

highly sulfated maltotetraose [Composition 5]
PC-3 growth inhibition (PC-3): inhibited PC-3 cell growth at all the time points tested
inhibition of adrenocortical endothelial cell proliferation [5]: significant activity
heparanase IC50 (heparanase; rat hepatoma heparanase, pH 5.2, 37° C., 20 minutes): 9.0 µg/mL
heparanase inhibition relative to porcine mucosal heparin (heparanase; result in words, FIG. 11): approximately one half as effective as porcine mucosal heparin
inhibition of SMC growth ([4]; 150 ug/ml, result in words): one hundred per cent inhibition was not observed
inhibition of SMC growth, per cent of heparin inhibition ([4]; about 60 ug/ml): about 50%
inhibition of SMC growth (anti-proliferative activity) ([4]; result in words): significant anti-proliferative effects, although not as great as heparin
angiostatic activity ([1]; HSM alone, without hydrocortisone, result in words): inactive
CAPAN-2 tumor growth inhibition (CAPAN-2): significantly inhibits tumor growth
inhibition of binding of RO-12 UC cells to bFGF coated wells (bFGF): significant activity
MDA231 tumor growth inhibition (MDA231; 100 mg/kg subcutaneous): tumor growth is significantly inhibited
time at which inhibition is first apparent (MDA231; MDA231, about): 36 to 37 days
tumor volume (MDA231; MDA231, days 68-69, control about 375 mm^3): ~125 mm^3
MDA231 tumor growth inhibition (MDA231; by days 68-69): dramatic

highly sulfated maltotriose [Composition 8]
inhibition of adrenocortical endothelial cell proliferation [5, 8]: less active
inhibition of adrenocortical endothelial cell proliferation ([5]; listed as sulfated maltotriose): little or no activity
inhibition of binding of RO-12 UC cells to bFGF coated wells (bFGF; [8]): less active
inhibition of binding of RO-12 UC cells to bFGF coated wells (bFGF; listed as sulfated maltotriose): little or no activity
